In this experiment the test system is MIAPACA2 cells. The experiment can be described thus: Proliferation assay (CellTiter-Glo, 72 h) in MIAPACA2 cells. The note with it: for IC90: MIAPACA2, 72 h; for increase in potency under copper supplementation versus non-copper-supplemented IC90: 20 μM CuCl2; for potency relative to non-fluorinated analog: IC90 without copper, analog of same 4′ amine series (HCT1, HCT6 or HCT11). Format: cell-based, human. The procedure: IC90 values against MIAPACA2 cells was first determined in normal cell culture conditions (DMEM media and 10% FBS). Compounds were separated into three series (4′ primary amines, 4′ secondary amines, 4′ tertiary amines) to reflect the relative degrees of 4′ amine methylation. […] (Refs 41, 42).
HCT compounds are known to be copper chelators. (Ref. 32). To test whether the compounds described herein were similarly potentiated, the IC90 (+Cu IC90) values were determined against MIAPACA2 cells in media supplemented with physiologically relevant levels of copper (DMEM media+10% FBS+20 μM CuCl2). MIAPACA2 cells were treated with the indicated HCT±20 μM Cu(II) for 72 hours, then cell viability was measured with CellTiter-Glo to determine IC90 values.
(§1) Proliferation assay: Cells were plated in 384-well plates (500 cells/well for adherent cell lines in 30 μl volume). Drugs were serially diluted to the desired concentrations and an equivalent volume of DMSO was added to vehicle control. Following 72 h incubation, ATP content was measured using CellTiter-Glo reagent according to manufacturer's instructions (Promega, CellTiter-Glo Luminescent Cell Viability Assay), and analyzed by SpectraMax luminometer (Molecular Devices). IC50 and IC90 values, concentrations required to inhibit proliferation by 50% and 90% respectively compared to DMSO treated cells, were calculated using Prism 6.0 h (Graphpad Software).
as §1, with “assay.” for “assay:”, “Software). The 430-member protein kinase inhibitor library used for the chemical genomics screen was purchased from Selleckchem, Catalog No. L1200.” for “Software).”
(Cellular ATP, detected with luciferase, serves as a proxy for viable cell number.)

Setting [1] is: Homo sapiens, MIA PaCa-2, 72 h, DMEM + 10% FBS, no copper supplementation, read-out: IC90.
Where [2] appears, read: DMEM + 10% FBS + 20 μM CuCl2, read-out: +Cu(II) IC90.

Where two headings read alike, the source gives them in different places.

By IC90 is commonly meant the concentration at which the effect reaches the 90% level.

Consider `CNc1cccc2c(/C=N/NC(N)=S)nccc12` [HCT4, (E)-2-((5-(Methylamino)isoquinolin-1-yl)methylene)hydrazine-1-carbothioamide, reference compound], for which the IC90 under setting [1] was 11500 nM and the IC90 under setting [2] is 5330 nM.

`CNC(=S)N/N=C/c1nccc2c(N)cccc12` (mixture of isomers) [HCT10, 2-((5-Aminoisoquinolin-1-yl)methylene)-N-methylhydrazine-1-carbothioamide and (Z)-2-((5-Aminoisoquinolin-1-yl)methylene)-N-methylhydrazine-1-carbothioamide]: the IC90 under setting [1] came out at 11200 nM and the IC90 under setting [2] is 7870 nM.

For the compound `CNC(=S)N/N=C/c1nccc2c(NC)cccc12` [HCT9, E)-N-Methyl-2-((5-(methylamino)isoquinolin-1-yl)methylene)hydrazine-1-carbothioamide and (Z)—N-Methyl-2-((5-(methylamino)isoquinolin-1-yl)methylene)hydrazine-1-carbothioamide], the “increase in potency under copper supplementation versus non-copper-supplemented IC90” value was “significantly increased”. For the same compound, the IC90 under setting [1] is 4240 nM. Further, under setting [2], the IC90 was found to be 607 nM.

Regarding `NC(=S)N/N=C/c1nccc2c(N)cccc12` [HCT5, (E)-2-((5-Aminoisoquinolin-1-yl)methylene)hydrazine-1-carbothioamide, reference compound], the “increase in potency under copper supplementation versus non-copper-supplemented IC90” value is on record as “attenuated”. Moreover, the IC90 under setting [1] was determined as 40500 nM. For the same compound, under setting [2], the IC90 was found to be 71100 nM.

As for `CN(C)C(=S)N/N=C/c1ncc(F)c2ccccc12` (mixture of isomers) [HCT12, (E)-2-((4-Fluoroisoquinolin-1-yl)methylene)-N,N-dimethylhydrazine-1-carbothioamide and (Z)-2-((4-Fluoroisoquinolin-1-yl)methylene)-N,N-dimethylhydrazine-1-carbothioamide], the “potency relative to non-fluorinated analog” value is reported as “roughly 110 fold”. Moreover, under setting [1], the IC90 was 274 nM. For the same compound, the IC90 under setting [2] was 26.6 nM.

For the compound `NC(=S)N/N=C/c1nccc2cc(F)ccc12` [HCT3, (E)-2-((6-Fluoroisoquinolin-1-yl)methylene)hydrazine-1-carbothioamide], the “potency relative to non-fluorinated analog” value is 3 fold. The IC90 under setting [1] amounted to 5440 nM. The IC90 under setting [2] was determined as 2040 nM.

As for `[Cl][Cu][Cl]` [Cu(II), CuCl2], the effect on proliferation entry (20 μM Cu(II) alone) is listed as “did not affect proliferation at all”.

For `CNc1c(F)ccc2c(/C=N/NC(=S)N(C)C)nccc12` (mixture of isomers) [HCT14, (E)-2-((6-Fluoro-5-(methylamino)isoquinolin-1-yl)methylene)-N,N-dimethylhydrazine-1-carbothioamide and (Z)-2-((6-Fluoro-5-(methylamino)isoquinolin-1-yl)methylene)-N,N-dimethylhydrazine-1-carbothioamide], the IC90 stood at 272 nM under setting [1] and 38.4 nM under setting [2].

For `NC(=S)N/N=C/c1nccc2ccccc12` [HCT1, (E)-2-(isoquinolin-1-ylmethylene)hydrazine-1-carbothioamide, reference compound], the “increase in potency under copper supplementation versus non-copper-supplemented IC90” value is 10 fold. Besides, the IC90 under setting [1] is 18100 nM. Further, the 90% effect concentration (IC90) under setting [2] worked out at 2210 nM.

As for `CNc1cccc2c(/C=N/NC(=S)N(C)C)ncc(F)c12` (mixture of isomers) [HCT15, (E)-2-((4-Fluoro-5-(methylamino)isoquinolin-1-yl)methylene)-N,N-dimethylhydrazine-1-carbothioamide and (Z)-2-((4-Fluoro-5-(methylamino)isoquinolin-1-yl)methylene)-N,N-dimethylhydrazine-1-carbothioamide], the IC90 reads like this: under setting [1], 327 nM; under setting [2], 42.3 nM.

For `NC(=S)N/N=C/c1ncc(F)c2ccccc12` [HCT2, (E)-2-((4-Fluoroisoquinolin-1-yl)methylene)hydrazine-1-carbothioamide], the “potency relative to non-fluorinated analog” value is reported as “did not show an increase in potency”. Moreover, the IC90 under setting [1] came out at 24600 nM. For the same compound, the IC90 under setting [2] worked out at 2060 nM.

As for `CNC(=S)N/N=C/c1nccc2cc(F)ccc12` [HCT8, (E)-2-((6-Fluoroisoquinolin-1-yl)methylene)-N-methylhydrazine-1-carbothioamide], the “potency relative to non-fluorinated analog” value is “significantly more potent”. Besides, under setting [1], the IC90 came out at 4080 nM. Moreover, the IC90 under setting [2] turned out to be 233 nM.

Regarding `CNC(=S)N/N=C/c1nccc2ccccc12` [HCT6, (E)-2-(isoquinolin-1-ylmethylene)-N-methylhydrazine-1-carbothioamide, reference compound], the “increase in potency under copper supplementation versus non-copper-supplemented IC90” value is on record as 60 fold. The “increase in potency under copper supplementation versus non-copper-supplemented IC90” value (listed as 6) is reported as “significantly increased”. For the same compound, the IC90 under setting [1] came out at 18700 nM. The IC90 under setting [2] is 331 nM.

With `CN(C)C(=S)N/N=C/c1nccc2ccccc12` (mixture of isomers) [HCT11, (E)-2-(Isoquinolin-1-ylmethylene)-N,N-dimethylhydrazine-1-carbothioamide and (Z)-2-(Isoquinolin-1-ylmethylene)-N,N-dimethylhydrazine-1-carbothioamide], the “increase in potency under copper supplementation versus non-copper-supplemented IC90” value came out at 400 fold. The “increase in potency under copper supplementation versus non-copper-supplemented IC90” value (listed as 11) is reported as “significantly increased”. The IC90 under setting [1] is 29600 nM. The IC90 under setting [2] came out at 73.7 nM.

Consider `CNC(=S)N/N=C/c1ncc(F)c2ccccc12` [HCT7, (E)-2-((4-Fluoroisoquinolin-1-yl)methylene)-N-methylhydrazine-1-carbothioamide], for which the “potency relative to non-fluorinated analog” value is “significantly more potent”. Under setting [1], the IC90 came to 2080 nM. For the same compound, the 90% effect concentration (IC90) under setting [2] amounted to 114 nM.
